Data: patent publication US20150071954A1, “STABLE PEPTIDE MIMETICS OF THE HIV-1 GP41 PRE-HAIRPIN INTERMEDIATE” (priority 2012, published 2015)
No end group written: not given here.

Key:
[1] = biological target: gp41 of HIV-1 virus HXB2 (HIV-1 isolate HXB2) (UniProt P04578); assay: cell-based or functional assay
[2] = biological target: gp41 of HIV-1 virus V570A (HIV-1 isolate HXB2) (UniProt P04578); assay: cell-based or functional assay
[3] = Circular dichroism (secondary structure, thermal stability); assay type: physicochemical; conditions: pH 4, 20° C.
[4] = Analytical ultracentrifugation (oligomeric state); assay type: physicochemical; conditions: for AUC Ratio (observed to predicted Mw): AUC condition a: 25 mM Na Acetate, 0.15M NaCl, pH 4; for self-association from AUC ratio of observed to predicted molecular weight: monomeric peptides
Method: All analytical ultracentrifugation (AU) experiments were performed with a XL-I analytical ultracentrifuge (Beckman Coulter, Inc., Indianopolis, Ind.) at 20° C. For sedimentation velocity analysis, the samples were centrifuged at 48,000 rpm at 20° C. for 5 hours, with radial absorbance scans taken approximately every 4 minutes. g*(s) analysis was performed with the program DCDT+, version 2.2.1 (John Philo, Thousand Oaks, Calif.) or the Optima XL-I data analysis software (Beckman Coulter, Inc.). Sedimentation equilibrium experiments were conducted at three different loading concentrations and three different rotor speeds (16,000, 20,000, and 30,000). Molecular masses were calculated using the Optima XL-I data analysis software or using Heteroanalysis version 1.1.33 (from the Analytical Ultracentrifugation Facility, Biotechnology and Bioservices Center of the University of Connecticut).

[5] = biological target: D5 IgG binding to 5-helix (recombinant gp41 mimetic); assay: D5/5-Helix Competitive Binding Assay (DCBA), peptide constructs; conditions: for IC50: competition for D5 binding to 5-helix, FRET
Method: An in vitro binding assay based on fluorescence resonance energy transfer (FRET) was performed as previously described in Caulfield et al., 2010, J Biol Chem 285:40604-40611. Briefly, the assay uses D5 IgG (see U.S. Pat. No. 7,744,887) conjugated to europium cryptate (Eu-D5) and a biotinylated derivative of the recombinant gp41 mimetic 5-helix (5H). Biotin-5H binds to a streptavidin-conjugated allophycocyanin (APC) substrate to form a 5H-SA-APC complex. Binding of Eu-D5 to 5H results in FRET from Eu to APC. When the reaction system is excited at a wavelength of 340 nm, the amount of bound Eu-D5 is measured at the emission wavelength of 665 nm, and total Eu is measured at the emission wavelength of 620 nm. Data are reported as 10000× the ratio of signal at 665 nm to signal at 620 nm. Agents that bind competitively to either component cause a decrease in the ratio value.

HXB2 = assay type: cell-based, HIV-1; conditions: HeLa P4R5 cells, virus HXB2; read-out: p4/2R5 IC50 HXB2
From the text: (§1) A number of different experimental methods can be used to determine whether or not a gp41 peptide mimetic can form a stable, faithful mimetic of said internal coiled-coil. For example, an assay designed to measure the ability of the conformationally constrained gp41 peptide mimetics to inhibit infectivity of HIV particles can be performed. In one such assay, HeLa cells stably expressing human CD4 and CCR5 receptors and harboring a β-galactosidase reporter gene driven by a tat-responsive fragment of HIV-2 LTR are infected with HIV-1 of various strains in the presence of gp41 peptide mimetics at varying concentrations. After incubating said cells for a specific period of time, the cells are lysed and β-galactosidase activity is quantified.
(§2) This neutralization assay was performed as previously described in Joyce et al., 2002, J Biol Chem 277:45811-45820 with the following modifications: HeLa P4R5 cells were seeded at 1000 cells/well in a 384-well plate and infected the following day with the appropriate HIV-1 or SHIV virus at a multiplicity of infection of approximately 0.01 in the presence of serial dilutions of immune sera or fractionated IgG 48 hours post infection, and cells were lysed and β-galactosidase activity was measured using a chemiluminescent substrate (GalScreen®, Applied Biosystems™, Life Technologies Corp., Carlsbad, Calif.). For analysis of purified IgG, the data are expressed as IC50, defined as the IgG concentration resulting in 50% reduction of chemiluminescence signal. For analysis of sera, the IC50 is defined as the reciprocal serum dilution resulting in 50% reduced chemiluminescence signal.

viral strain V570A = assay type: cell-based, HIV-1; conditions: HeLa P4R5 cells, virus V570A; read-out: p4/2R5 IC50 V570A
From the text: as §1, §2

[6] = biological target: gp41 of HIV-1 virus V570A (HIV-1 isolate HXB2, UniProt P04578 512-856); assay: cell-based or functional assay
gp41 of HIV-1 virus HXB2 = gp41 of HIV-1 virus HXB2 (HIV-1 isolate HXB2, UniProt P04578 512-856); assay: cell-based or functional assay
[7] = biological target: the molecule itself; assay: analytical ultracentrifugation (ratio of observed to predicted molecular weight); self-association
[8] = CD condition a: 50 mM Na Acetate, 0.15M NaCl

With D5 IgG (antibody) the p4/2R5 IC50 (nM), HXB2 [1] was 179 nM and the p4/2R5 IC50 (nM), V570A [2] was 61.7 nM.

With “KTA(N51-3B)3: three thiol tagged monomeric N51-3B peptides ligated on trivalent bromide scaffold KTA-Br (QARQLLSGIVQQQNNLLRAIEAQQHALQLTVWGIKQLQARILAVERYLKDQ-NH2; not fully specified (N-terminus); also: trimer: three S-acetylglycolic thiol-tagged N51-3B ligated on trivalent bromide scaffold KTA-Br)” the “CD % (-helix)” value ([3]; CD condition c: 25 mM Na Acetate) was 88%, the “AUC Observed Mw: precipitation” value ([4]; pH 7) was “ppt (pH 7)” and the IC50 [5] was 38.4 nM.

In the case of “Ac-QIRELISKIVEQINNILRAIEAQQHALQLTVWGIKQLQARILAVERYLKDQ-NH2 (N-terminus assumed) [Peptide N51-2B]”, the “CD % (-helix)” value [3, 8] is reported as 97%, the “AUC Ratio (observed to predicted Mw)” value [4] is reported as 3.6 and the “self-association from AUC ratio of observed to predicted molecular weight” value [4] is reported as “strong preference for self-association”. For the same molecule, the “effect of mutations on D5 binding in DCBA” value [5] was “apparent negative impact”, the IC50 [5] was > 300 nM and the IC50 (HXB2) was 60.9 nM. It also gave an IC50 (viral strain V570A) of 33.4 nM.

With “Ac-QARQLLSGIVQQQNNLLRAIEAQQHALQLTVWGIKQLQARILAVERYLKDQ-NH2 (N-terminus assumed) [Peptide N51-3B]” the “CD % (-helix)” value [3, 8] was 105%, the “AUC Ratio (observed to predicted Mw)” value [4] was 3.3 and the “self-association from AUC ratio of observed to predicted molecular weight” value [4] was “strong preference for self-association”. For the same molecule, the “effect of mutations on D5 binding in DCBA” value [5] was “apparent negative impact”, the IC50 [5] was > 300 nM and the IC50 (HXB2) was 107 nM. For the same molecule, the IC50 (viral strain V570A) was 49.3 nM.

B1: N51-3B (L′584) (peptide)
peptide: QARQLLSGIVQQQNNLLRAIEAQQHALQLTVWGIKQLQARILAVERYLKDQ
notes: Monomeric synthetic peptide
In the case of B1, the “p4/2R5 IC50 (nM), V570A” value [6] is reported as 49.3 nM, the “p4/2R5 IC50 (nM), HXB2” value (gp41 of HIV-1 virus HXB2) is reported as 107 nM and the binding result [7] is reported as “binds”.

B2: KTA(N51-3B)3 (L′510) (peptide)
peptide: QARQLLSGIVQQQNNLLRAIEAQQHALQLTVWGIKQLQARILAVERYLKDQ
modifications: not fully specified (N-terminus); also: covalent trimer of three N51-3B peptides on Kemp's triacid scaffold
For B2, the “p4/2R5 IC50 (nM), V570A” value [6] was 29.1 nM and the “p4/2R5 IC50 (nM), HXB2” value (gp41 of HIV-1 virus HXB2) was 79.4 nM.

B3: N51-2B (L′583) (peptide)
peptide: QIRELISKIVEQINNILRAIEAQQHALQLTVWGIKQLQARILAVERYLKDQ
modifications: not fully specified (C-terminus)
notes: Monomeric synthetic peptide made on Rink amide resin; Self-associates in solution
For B3, the “p4/2R5 IC50 (nM), V570A” value [6] was 33.4 nM, the “p4/2R5 IC50 (nM), HXB2” value (gp41 of HIV-1 virus HXB2) was 60.9 nM and the binding result [7] was “binds”.
